This note sets out measurements from patent US20210283107A1, “Methods to Expand the Spectrum of Gram-Positive Antibiotics” (NORTH CAROLINA STATE UNIVERSITY, priority 2016, published 2021).

Experiment [1] deals with A. baumannii strain 5075 (AB5075). Kind of experiment: Macrolide sensitization / antibiotic resensitization: antibiotic MIC in presence of compound (broth microdilution). It counts as cell-based, Acinetobacter baumannii. As to conditions: AB5075; for MIC: Acinetobacter baumannii, antibiotic alone, no compound (control row), read-out: MIC (μg/mL) of the antibiotic. On the procedure:
A. baumannii 5075 was plated on LB agar, then grown in CAMHB for 6-8 h and this culture was used to inoculate fresh CAMHB (5×10^5 CFU/mL). The resulting suspension was aliquoted (5 mL) into culture tubes and compound, from 100 mM DMSO stock, was added. One aliquot was not treated (control). 1 mL of each sample was transferred to a new culture tube and antibiotic was added. Rows 2-12 of a 96-well microtiter plate were filled with 100 μL/well from the remaining 4 mL bacterial subcultures, allowing the concentration of compound to be kept uniform throughout the antibiotic dilution procedure. Samples containing antibiotic were aliquoted (200 μL) into the corresponding first row wells of the microtiter plate. Row 1 wells were mixed 6 to 8 times then 100 μL was withdrawn and transferred to row 2. Row 2 wells were mixed 6 to 8 times, followed by a 100 μL transfer from row 2 to row 3. This procedure was repeated to serially dilute the rest of the rows of the microtiter plate, with the exception of the final row, to which no antibiotic was added (to check for growth of bacteria in the presence of compound alone). The microtiter plate was then covered, placed in a covered damp plastic container and incubated under stationary conditions at 37° C. After 16-18 hrs minimum inhibitory concentration (MIC) values were recorded as the lowest concentration of antibiotic at which there was no visible growth of bacteria. Experiments were carried out in duplicate each time and repeated at least twice.
The difference in antibiotic MIC between the control (no compound) sample, and the samples containing each compound was recorded as the fold-reduction.
Day Cultures (6 h) were subcultured to 5×10^5 CFU/mL in cation adjusted Mueller-Hinton broth (CAMHB). […] One milliliter of the resulting solution was aliquoted into a separate culture tube and was dosed with antibiotic so that the resulting concentration was the highest desirable concentration to be tested. Bacteria treated with antibiotic alone were used as a control. Row one of a 96-well plate was filled with 200 μL of the antibiotic/compound solution, and the remaining rows were filled with 100 μL of the remaining 4 mL bacterial subculture. The wells in row one were mixed five times before 100 μL was transferred to the following row (row two). Row two was then mixed five times, and 100 μL was transferred to row three. This process was repeated until the second to last row had been reached. The last row is left unexposed to antibiotic in order to serve as a negative control. The antibiotic only treated bacteria was plated by aliquoting 200 μL of the treated bacteria into row one and filling the remaining rows with untreated bacteria from the original bacteria subculture. The rows were mixed in the same way as described above. Plates were covered with Glad Press n'Seal and were incubated under stationary conditions at 37° C. for 16 hours. MIC values were recorded as the lowest concentration at which no bacterial growth was observed. Fold reductions were determined by comparison of the compound treated wells with the antibiotic only treated control wells.

The test system of experiment [2] is A. baumannii mutant AB522. Kind of experiment: MIC against Tn-seq transposon mutant AB522. It counts as cell-based. As to conditions: Acinetobacter baumannii. On the procedure: (§1) During individual MIC screening, two mutants, AB522 and AB1310, were identified due to their increased sensitivity to the three macrolide antibiotics and vancomycin when compared to AB 5075 (Table 17).
(§2) Day Cultures (6 h) were subcultured to 5×10^5 CFU/mL in cation adjusted Mueller-Hinton broth (CAMHB). Aliquots (1 mL) were placed in culture tubes, and compound was added from 100 mM stock solutions, such that the compound concentration equaled the highest concentration tested (200 μM or 64 μg/mL). Samples were then aliquoted (200 μL) into the first row of wells of a 96-well plate, with all remaining wells being filled with 100 μL of initial bacterial subculture. The wells in row one were mixed five times before 100 μL was transferred to the following row (row two). Row two was then mixed five times, and 100 μL was transferred to row three. This processed was repeated until the final row had been mixed. This process provided a serial dilution of the compound. Plates were covered with Glad Press n'Seal and were incubated under stationary conditions at 37° C. for 16 hours. MIC values were recorded as the lowest concentration at which no bacterial growth was observed.

For experiment [3], the system named is A. baumannii mutant AB1310. Kind of experiment: MIC against Tn-seq transposon mutant AB1310. The experiment is classed as cell-based. As to conditions: Acinetobacter baumannii. As to the method:
as §1, §2

Experiment [4] deals with AB5075. Kind of experiment: H33342 accumulation assay (efflux). The experiment is classed as cell-based, Acinetobacter baumannii. As to conditions: for H33342 accumulation, fluorescence at 355 and 460 nm: 25 μM CCCP, immediately following exposure. As to the method: In addition to the evaluation of the relationship between compounds 1 and 4 and colistin, the impact of compound 1 on efflux was evaluated using AB5075 and a bisBenzimide H33342 trihydrochloride (H33342) accumulation assay. Using a procedure adapted from Coldham et al. (A 96-well plate fluorescence assay for assessment of cellular permeability and active efflux in Salmonella enterica serovar Typhimurium and Escherichia coli. J Antimicrob Chemother, 2010. 65(8): p. 1655-63) and Richmond et al. (Efflux in Acinetobacter baumannii can be determined by measuring accumulation of H33342 (bis-benzamide). J Antimicrob Chemother, 2013. 68(7): p. 1594-600), the effect of no treatment, a known inhibitor carbonyl cyanide-m-chlorophenyl hydrazone (CCCP), and compound 1 on efflux was analyzed over 30 minutes and in two different treatment variations. Fluorescence was read using excitation and emission filters of 355 and 460 nm, and the values were processed in excel. The first analysis was performed immediately after treating the bacteria with compound 1 at both 10 and 30 μM and CCCP at 25 μM.
The second analysis was performed after exposing the bacteria to compound 1 at 30 μM for 5-hours shaking at 37° C.

For experiment [5], the system named is A. baumannii strain 5075 (AB5075). Kind of experiment: Broth microdilution MIC determination of compound alone. The experiment is classed as cell-based. As to conditions: Acinetobacter baumannii; compound alone; AB5075; read-out: MIC. As to the method:
Our initial screening began by testing a diverse selection of 2-AI compounds from our internal library for their minimal inhibitory concentrations (MIC) against A. baumannii isolate 5075.
as §2

Experiment [6] relates to AB 5075. Kind of experiment: Backlight assay for membrane permeability. It counts as cell-based, Acinetobacter baumannii. As to conditions: AB5075. On the procedure:
The assay was initially performed at 10, 20 and 30 μM with compounds 1 and 4 (Table 16). […] When the concentration is lowered to 20 μM, the percent of membrane disrupted also decreases to 78% and 83% respectively. When further decreasing the concentration to 10 μM, the membrane disruption decreases to 39 and 44% respectively. Due to the similar structure and lack of potentiation activity, compound 25 was screened at 10, 20 and 30 μM to compare membrane permeability with that of active compounds. The percent disruption was less than seen with compounds 1 and 4 being 53, 54 and 60% respectively.

[7] abbreviates: compound at 60 μM vs antibiotic alone.

SMILES strings stand for the structures. In brackets after ≈: the same amount, converted by molar mass. Several values for one entry are separate records, joined by “and”; a condition that tells them apart may be missing. Equal values may be shown once. A value given as a limit tells only on which side of the number the result lay.

Turning to `CC[C@H]1OC(=O)[C@H](C)[C@@H](O[C@H]2C[C@@](C)(OC)[C@@H](O)[C@H](C)O2)[C@H](C)[C@@H](O[C@@H]2O[C@H](C)C[C@H](N(C)C)[C@H]2O)[C@](C)(O)C[C@@H](C)CN(C)[C@H](C)[C@@H](O)[C@]1(C)O` [Azithromycin, azithromycin], the results for the MIC in experiment [1], in experiment [2] and in experiment [3] were 64 µg/mL, 4 µg/mL (≈ 5.34 µM) and 4 µg/mL (≈ 5.34 µM), respectively.
For `N#CC(C#N)=NNc1cccc(Cl)c1` [CCCP, carbonyl cyanide-m-chlorophenyl hydrazone, reference compound], the “H33342 accumulation, fluorescence at 355 and 460 nm” value in experiment [4] (time 0 minutes) is given as 42,713.8 ± 10,482.1; in experiment [4] (time 10 minutes), 50,618.3 ± 9,944.3; in experiment [4] (time 20 minutes) it was 50,928.8 ± 6,944.8; in experiment [4] (time 30 minutes), 48,907.2 ± 4,873. Besides, in experiment [4] (immediately after treating, compound 1 at both 10 and 30 μM, CCCP at 25 μM), the “change in H33342 fluorescence over 30 minutes” value is recorded as “a notable increase in fluorescence”.
Turning to `Cl.Nc1ncc(CCCCCc2ccccc2)[nH]1` [Compound 13], the MIC in experiment [5] came to 200 µM. Further, the “Fold reduction (erythromycin MIC)” value in experiment [1] (compound at 30 μM vs antibiotic alone) worked out at 4 fold.
For `Nc1nc(-c2ccc(NC(=O)c3cccc(F)c3)cc2)c[nH]1` [Compound 14], in experiment [5], the MIC is more than 200 µM. Further, the “Fold reduction (erythromycin MIC)” value in experiment [1] (setting [7]) is given as 8 fold.
The matching figures for `Nc1nc(-c2ccc(NC(=O)c3cc(F)cc(F)c3)cc2)c[nH]1` [Compound 15]: 200 µM (≈ 62.9 µg/mL) and 8 fold.
The matching figures for `Nc1nc(-c2ccc(NC(=O)c3ccc(Cl)cc3)cc2)c[nH]1` [Compound 16]: more than 200 µM and 4 fold.
The matching figures for `Nc1nc(-c2ccc(NC(=O)c3c(F)c(F)c(F)c(F)c3F)cc2)c[nH]1` [Compound 17]: more than 200 µM and 4 fold.
In the case of `Nc1nc(-c2ccc(NC(=O)c3ccc(Br)cc3)cc2)c[nH]1` [Compound 18], in experiment [5], the MIC was more than 200 µM. The “Fold reduction (erythromycin MIC)” value in experiment [1] (setting [7]) is 4 fold.
Regarding `Nc1nc(-c2ccc(NC(=O)c3cccc(Br)c3)cc2)c[nH]1` [Compound 19], in experiment [5], the MIC is more than 200 µM. Besides, in experiment [1] (setting [7]), the “Fold reduction (erythromycin MIC)” value stood at 8 fold.
Turning to `Nc1nc(-c2ccc(NC(=O)c3ccc(Cl)cc3Cl)cc2)c[nH]1` [Compound 20], in experiment [5], the MIC was more than 200 µM. In addition, the “Fold reduction (erythromycin MIC)” value in experiment [1] (setting [7]) was determined as 4 fold.
The matching figures for `Nc1nc(-c2ccc(NC(=O)c3ccc(Br)cc3F)cc2)c[nH]1` [Compound 21]: more than 200 µM and 8 fold.
On to `Nc1nc(-c2ccc(NC(=O)c3ccc(I)cc3)cc2)c[nH]1` [Compound 25], for which, in experiment [5], the MIC is more than 200 µM. Besides, the “Disrupted bacterial membrane (%)” value was 53% and 53.7% in experiment [6] (compound at 10 μM); 54% in experiment [6] (compound at 20 μM); 60% in experiment [6] (compound at 30 μM).
In the case of `CC[C@H]1OC(=O)[C@H](C)[C@@H](O[C@H]2C[C@@](C)(OC)[C@@H](O)[C@H](C)O2)[C@H](C)[C@@H](O[C@@H]2O[C@H](C)C[C@H](N(C)C)[C@H]2O)[C@](C)(O)C[C@@H](C)C(=O)[C@H](C)[C@@H](O)[C@]1(C)O` [Erythromycin], the MIC was determined as 32 µg/mL in experiment [1], 2 µg/mL (≈ 2.73 µM) in experiment [2] and 4 µg/mL (≈ 5.45 µM) in experiment [3].
